In PubChem BioAssay (NCI):
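Exposure lasted 48 hours, with cells grown in 96-well plates and compounds tested at five concentrations. TGI: total growth inhibition.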

Experiments:
Assay in all cases: NCI anticancer screen, dose series, 48 h
SK-MEL-2 melanoma = system: SK-MEL-2 melanoma
OVCAR-8 ovarian = system: OVCAR-8 ovarian
CCRF-CEM leukemia = system: CCRF-CEM leukemia
IGROV1 ovarian = system: IGROV1 ovarian
A549 NSCLC = system: A549 NSCLC
K-562 leukemia = system: K-562 leukemia
UACC-257 melanoma = system: UACC-257 melanoma
SK-MEL-5 melanoma = system: SK-MEL-5 melanoma
MDA-MB-435 = system: MDA-MB-435
T-47D breast = system: T-47D breast

Row | SMILES | TGI (SK-MEL-2 melanoma) [µM] | TGI (OVCAR-8 ovarian) [µM] | TGI (CCRF-CEM leukemia) [µM] | TGI (IGROV1 ovarian) [µM] | TGI (A549 NSCLC) [µM] | TGI (K-562 leukemia) [µM] | TGI (UACC-257 melanoma) [µM] | TGI (SK-MEL-5 melanoma) [µM] | TGI (MDA-MB-435) [µM] | TGI (T-47D breast) [µM]
1 | O=C1c2ccccc2C(=O)c2c1cc(S(=O)(=O)O)c(O)c2O | > 100 | > 100 | > 100 | > 100 | > 100 | > 100 | > 100 |  |  | 
2 | NCCCCC(NC(=O)C(N)Cc1ccc(O)cn1)C(=O)O (stereo unspecified) |  | > 100 | > 100 | > 100 | > 100 | > 100 | > 100 | > 100 | > 100 | 
3 | CCOC(=O)N(NC(=O)NC(C)C)c1ccccc1 | > 100 | > 100 | > 100 | > 100 | > 100 | > 100 | > 100 | > 100 |  | 
4 | COc1ccc(C[C@@H](CO)NC2=C(C#N)CCC2)cc1 | > 100 | > 100 | > 100 |  | > 100 | > 100 | > 100 | > 100 | > 100 | 
5 | CC(C)(C)OC(=O)CN1C(=O)CC1CC(=O)c1ccccc1 (stereo unspecified) | 32.2 | 32.6 |  | 32.2 | > 100 | 34.2 | 35.2 | 33.1 | 41.2 | 
6 | Nc1nc(Cl)c(CO)c(NCC2(CO)CC(CCc3ccccc3)C2)n1 (stereo unspecified) |  | 35.6 | 69.5 |  | 34.5 | 43.1 | 32.4 | 39.4 | 26.5 | 
7 | O=P1(O)c2ccccc2CCc2ccccc21 | > 100 | > 100 | > 100 | > 100 | > 100 | > 100 | > 100 | > 100 | > 100 | 
8 | CC(=O)N(C(C)=O)n1c(Cc2ccc(Cl)cc2)n[nH]c1=O | > 100 | > 100 | > 100 | > 100 | > 100 | > 100 | > 100 | > 100 | > 100 | 
9 | O=C(Cn1c2c(c3ccccc31)CCCC2)N1CCCC1 | > 100 | > 100 |  | > 100 | > 100 |  | > 100 | > 100 | > 100 | 
10 | O=S(=O)(O)C1=C2Sc3ccccc3N=C2c2ccccc2C1 | 35.7 | 31.5 | 24.3 | 28.1 | 34.3 | 36.1 | 31.4 | 26.4 |  | 
11 | [Cl-].[Rh+3].c1cnc2c(c1)ccc1cccnc12.c1cnc2c(c1)ccc1cccnc12.c1cnc2c(c1)ccc1cccnc12 | > 100 | > 100 | > 100 | > 100 | > 100 | > 100 | 92.5 | > 100 |  | 
12 | O=C(N/N=C/C=C/c1ccccc1)[C@H](O)[C@@H](O)C(=O)N/N=C/C=C/c1ccccc1 | > 100 | > 100 | > 100 | > 100 | > 100 | > 100 | > 100 | > 100 |  | 
13 | Nc1nc(I)nc2c1ncn2C1OC(COS(N)(=O)=O)C(O)C1O (stereo unspecified) | 0.0107 | < 0.0106 | 0.0268 | 0.0401 | 0.201 | 0.37 | 0.0716 | < 0.0113 | 0.0138 | 
14 | CCN(CC)CCn1nc(N)c2nc3ccccc3nc21 | > 100 | > 100 | > 100 | > 100 | > 100 | > 100 | > 100 |  | > 100 | 
15 | O=C(O)C1CCCN(CCc2c[nH]c3ccccc23)C1 (stereo unspecified) | > 100 | > 100 | > 100 | > 100 | > 100 | > 100 | > 100 |  | > 100 | > 100
16 | CCOC(=O)c1c(NC(=O)c2cccs2)sc2c1CCC2 | > 100 | > 100 | > 100 | > 100 | > 100 | > 100 | > 100 | > 100 |  | > 100
17 | COc1ccc2c(c1)C(=O)Cc1ccccc1CC2 | > 100 | > 100 | > 100 | > 100 | > 100 | > 100 | > 100 | > 100 |  | 
18 | CCC(C)(C)C1CCC2c3c([nH]c4ccccc34)C3C(=O)N(c4ccc(OC)cc4)C(=O)C3C2C1 (stereo unspecified) | 40.3 | 30.4 |  | 90.8 | 35.5 | > 100 | > 100 |  | 43.5 | 38.4
19 | O=[N+]([O-])c1ccc2c(c1)S(=O)(=O)N1Cc3ccccc3CCN21 | > 100 | > 100 | > 100 | > 100 | > 100 | > 100 | > 100 | > 100 | > 100 | 
20 | CN1CCN(c2ccc3[nH]c(-c4cc(O)c5c(nc(CO)n5C)c4O)nc3n2)CC1 | 51.7 | > 100 | 58.6 | > 100 | > 100 | > 100 | > 100 |  | 48.3 | > 100
21 | O=c1[nH]c(=O)n(CCOc2ccccc2)cc1Nc1ccccc1 |  |  | > 100 | > 100 | > 100 | > 100 | > 100 | > 100 | > 100 | 
